Values quoted from earlier work as cited in patent US6288110A, “Pharmaceutical compositions comprising disulfiram” (Yeda Research and Development Co Ltd., priority 1998, dated 2001).

Settings: non-enzymatic degradation; cited from earlier work

In the case of `CCN(CC)C(=S)S` [DDC, diethyldithiocarbamate], the “further metabolism of DDC” value is listed as “non-enzymatic degradation to diethylamine (DEA)”.
